Data as given in PubChem BioAssay AID588468 (NMMLSC, 2011).
Active and inactive are the calls of the source.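 The calls were made as follows: active = compounds whose thermal stabilization response of the kinase is above zero; inactive = the rest.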

target: Beta-adrenergic receptor kinase 1 (Homo sapiens) (UniProt P25098); test: ligand-induced GRK2 thermal stabilization – biophysical, Thermofluor, set 2, orthogonal assay for GRK2 aptamer-displacement inhibitor project, late-stage follow-up (AID 588468); settings: purified GRK2 thermal shift, ANS fluorescence; at 200 µM; active compounds read high
Sequence (P25098 whole entry, looked up): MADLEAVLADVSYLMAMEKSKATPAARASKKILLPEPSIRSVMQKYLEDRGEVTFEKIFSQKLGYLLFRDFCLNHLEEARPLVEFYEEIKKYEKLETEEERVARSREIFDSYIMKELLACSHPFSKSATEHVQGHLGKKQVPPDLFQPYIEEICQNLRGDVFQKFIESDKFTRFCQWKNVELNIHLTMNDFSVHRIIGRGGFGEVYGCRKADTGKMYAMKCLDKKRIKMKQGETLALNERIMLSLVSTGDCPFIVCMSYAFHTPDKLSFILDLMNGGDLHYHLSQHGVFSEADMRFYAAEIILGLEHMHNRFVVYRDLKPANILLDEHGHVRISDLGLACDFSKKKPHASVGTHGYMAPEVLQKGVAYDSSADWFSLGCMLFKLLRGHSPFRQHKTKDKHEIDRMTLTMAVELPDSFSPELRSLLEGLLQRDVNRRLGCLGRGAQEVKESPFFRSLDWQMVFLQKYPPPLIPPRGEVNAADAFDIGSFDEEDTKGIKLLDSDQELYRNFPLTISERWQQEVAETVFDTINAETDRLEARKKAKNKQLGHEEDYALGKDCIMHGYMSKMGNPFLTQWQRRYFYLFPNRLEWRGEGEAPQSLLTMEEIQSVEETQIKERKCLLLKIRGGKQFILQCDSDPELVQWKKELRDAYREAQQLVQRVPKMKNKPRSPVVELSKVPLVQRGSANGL

SMILES	thermal stabilization response
Cc1cc2ccccc2n1CCNC(=O)C(C)Oc1ccccc1 (stereo not drawn)	-116% (inactive)
C#CCSc1nc2sc3c(c2c(=O)n1C)CCC3	21.3%
O=C(CN1CCc2ccccc21)NC(=O)NCc1ccccc1	25.7%
COc1ccc(NC(=O)CCS(=O)(=O)c2ccc(Br)s2)cc1	-93.6% (inactive)
NS(=O)(=O)c1ccc(CCNC(=O)CCS(=O)(=O)c2ccc(Br)cc2)cc1	-107% (inactive)
COC(=O)c1ccccc1NC(=O)CCS(=O)(=O)c1ccc(Br)s1	-184% (inactive)
O=C(CSc1nc2ccccc2c(=O)n1-c1ccccc1)NC(=O)CN1CCCC1=O	-62% (inactive)
COc1ccc(Cl)cc1NC(=O)CCS(=O)(=O)c1ccc(Br)cc1	-601% (inactive)
Cc1ccc(CCNC(=O)CCS(=O)(=O)c2ccc(Br)cc2)cc1	1.04%
CCOc1ccc(NC(=O)CCS(=O)(=O)c2ccc(Br)cc2)cc1	-25.9% (inactive)
CC(CS(=O)(=O)c1ccc2c(c1)NC(=O)CS2)C(=O)NCc1ccccc1Cl (stereo not drawn)	-20.4% (inactive)
O=C(O)Cc1ccc(-n2cccc2)cc1	-127% (inactive)
CCOc1ccccc1NC(=O)CCS(=O)(=O)c1ccc(Br)cc1	-16.1% (inactive)
O=C(CCS(=O)(=O)c1ccc(Br)s1)Nc1ccccc1Br	-73.1% (inactive)
COC(=O)c1ccc(NC(=O)CCS(=O)(=O)c2ccc(Br)cc2)cc1	-62.8% (inactive)
O=C(CCS(=O)(=O)c1ccc(Br)cc1)NCc1cccs1	-152% (inactive)
CC(=O)N1CCN(Cc2nc3cc(Cl)ccc3c(=O)[nH]2)CC1	-41.4% (inactive)
CCN(CC)c1ccc(NC(=O)CCS(=O)(=O)c2ccc(Br)cc2)c(C)c1	72%
O=C(CCS(=O)(=O)c1ccc(Br)cc1)Nc1ccc(Br)cc1F	-34.7% (inactive)
Cc1ccccc1NC(=O)CCS(=O)(=O)c1ccc(Br)s1	116%
Cc1cccc(CCNC(=O)CCS(=O)(=O)c2ccc(Br)cc2)c1	44.5%
COc1ccc(CCNC(=O)CCS(=O)(=O)c2ccc(Br)cc2)cc1OC	-74.6% (inactive)
COc1ccc([N+](=O)[O-])cc1NC(=O)CCS(=O)(=O)c1ccc(Br)cc1	-85.1% (inactive)
